The record followed here is patent US20220073536A1 (Rigel Pharmaceuticals, Inc., priority 2003, published 2022).

Molecules are shown by their SMILES.

For test [1], the system named is cultured human mast cells (CHMC). Kind of test: CHMC low cell density ionomycin activation: tryptase assay. The class given is cell-based. The conditions noted are these: low cell density CHMC, read-out: LD Tryptase, CHMC, Iono, 3 pt.
For test [2] the test system is unchanged. The experiment in a line: CHMC low cell density IgE activation: tryptase assay. The conditions noted are these: low cell density CHMC, IgE activation. The test is classed as cell-based. The essentials:
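Low-density CHMC, 1000-1500 cells/well in MT; 1 hr 37 °C; anti-IgE challenge 30 min 37 °C; supernatant tryptase via fluorogenic substrate, 30 min RT.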

Setting [3] is: tryptase release, 3 point, read-out: LD Tryptase, CHMC, IgE, 3 pt.
Where [4] appears, read: tryptase release, 8 point, read-out: LD Tryptase, CHMC, IgE, 8 pt.
[5] abbreviates: Homo sapiens, Mast cell, tryptase release, 3 point.
Where [6] appears, read: Homo sapiens, Mast cell, tryptase release, 3 point, read-out: LD Tryptase, CHMC, IgE, 3 pt.
The mark [7] stands for this setting: Homo sapiens, Mast cell, tryptase, 3 pt.
Where [8] appears, read: Homo sapiens, Mast cell, tryptase, 3 pt, read-out: LD Tryptase, CHMC, IgE, 3 pt.

As for `COC(=O)Cn1ccc2cc(Nc3ncc(F)c(Nc4ccc(OC)c(Cl)c4)n3)ccc21` [Compound 646, N4-(3-Chloro-4-methoxyphenyl)-5-fluoro-N2-[1-(methoxycarbonylmethylene)indol-5-yl]-2,4-pyrimidinediamine], the IC50 in test [1] (tryptase release, 3 point) was > 10 µM; in test [2] (setting [3]), < 10 µM; in test [2] (setting [4]), < 10 µM.
For `COC(=O)Cn1ccc2cc(Nc3ncc(F)c(Nc4ccc5c(c4)OCCO5)n3)ccc21` [Compound 647, N4-(3,4-Ethylenedioxyphenyl)-5-fluoro-N2-[1-(methoxycarbonylmethylene)indol-5-yl]-2,4-pyrimidinediamine], the IC50 in test [1] (tryptase release, 3 point) is > 10 µM; in test [2] (setting [3]), < 10 µM; in test [2] (setting [4]), < 10 µM.
Regarding `CNC(=O)Cn1ccc2ccc(Nc3ncc(F)c(Nc4ccc5c(c4)OCCO5)n3)cc21` [Compound 649, N4-(3,4-Ethylenedioxyphenyl)-5-fluoro-N2-[1-(N-methylamino)carbonylmethyleneindol-6-yl]-2,4-pyrimidinediamine], the IC50 in test [1] (tryptase release, 3 point) was > 10 µM; in test [2] (setting [3]) it was < 10 µM; in test [2] (setting [4]), < 10 µM.
Turning to `COc1ccc(N(C)c2nc(Cl)ncc2F)cn1` [Compound 657], the IC50 in test [1] (setting [5]) and in test [2] (setting [6]) was > 10 µM throughout.
Regarding `CN(c1ccc(Cl)c(C(F)(F)F)c1)c1nc(Cl)ncc1F` [Compound 658], the IC50 in test [1] (setting [5]) and in test [2] (setting [6]) was > 10 µM each time.
For `COc1cc(N(C)c2nc(Cl)ncc2F)ccc1Cl` [Compound 659], the IC50 in test [1] (setting [5]) and in test [2] (setting [6]) was > 10 µM each time.
For the compound `COc1ccc(N(C)c2nc(Cl)ncc2F)cc1Cl` [Compound 660], the IC50 in test [1] (setting [5]) and in test [2] (setting [6]) was > 10 µM each time.
Regarding `CNC(=O)Cn1ccc2ccc(Nc3ncc(F)c(Nc4ccc(OC(F)(F)F)c(Cl)c4)n3)cc21` [Compound 662, N4-(3-Chloro-4-trifluoromethoxyphenyl)-5-fluoro-N2-[1-(N-methylamino)carbonylmethyleneindol-6-yl]-2,4-pyrimidinediamine], the IC50 in test [1] (tryptase release, 3 point) is > 10 µM; in test [2] (setting [3]), < 10 µM; in test [2] (setting [4]) it was < 10 µM.
For the compound `CNC(=O)Cn1ccc2ccc(Nc3ncc(F)c(Nc4ccc(Cl)c(OC)c4)n3)cc21` [Compound 663, N4-(4-Chloro-3-methoxyphenyl)-5-fluoro-N2-[1-(N-methylamino)carbonylmethyleneindol-6-yl]-2,4-pyrimidinediamine], the IC50 is > 10 µM in test [1] (tryptase release, 3 point) and < 10 µM in test [2] (setting [3]).
As to `CNC(=O)Cn1ccc2ccc(Nc3ncc(F)c(Nc4ccc(OC)c(Cl)c4)n3)cc21` [Compound 664, N4-(3-Chloro-4-methoxyphenyl)-5-fluoro-N2-[1-(N-methylamino)carbonylmethyleneindol-6-yl]-2,4-pyrimidinediamine], the IC50 in test [1] (tryptase release, 3 point) was > 10 µM; in test [2] (setting [3]), < 10 µM; in test [2] (setting [4]), < 10 µM.
`CNC(=O)Cn1ccc2ccc(Nc3ncc(F)c(Nc4ccc(C(=O)NC)c(Cl)c4)n3)cc21` [Compound 665, N4-[3-Chloro-4-(N-methylamino)carbonylphenyl]-5-fluoro-N2-[1-(N-methylamino)carbonylmethyleneindol-6-yl]-2,4-pyrimidinediamine]: the IC50 in test [1] (tryptase release, 3 point) was > 10 µM; in test [2] (setting [3]) it was < 10 µM.
Regarding `COc1ccc(Nc2nc(Cl)ncc2F)cc1Cl` [Compound 666], the IC50 in test [1] (setting [5]) and in test [2] (setting [6]) was > 10 µM throughout.
Consider `CCn1ncc2cc(Nc3ncc(F)c(Nc4ccc(OC)c(Cl)c4)n3)ccc21` [Compound 694], for which the IC50 in test [1] (setting [7]) is > 10 µM; in test [2] (setting [8]), < 10 µM; in test [2] (Homo sapiens, Mast cell, tryptase, 8 pt, read-out: LD Tryptase, CHMC, IgE, 8 pt), < 10 µM.
For `CCn1ncc2cc(Nc3ncc(F)c(Nc4ccc(Cl)c(Cl)c4)n3)ccc21` [Compound 695, N4-(3,4-Dichlorophenyl)-N2-(1-ethylindazol-5-yl)-5-fluoro-2,4-pyrimidinediamine], the IC50 in test [1] (setting [7]) and in test [2] (setting [8]) was > 10 µM each time.
